Source: US10676509B2, “Surface-immobilized antimicrobial peptoids” (Northwestern University, priority 2008, dated 2020)
In brackets after ≈: the same amount, converted by molar mass. Where two headings read alike, the source gives them in different places. Starred links: 1 amine or outer side, 2 acyl side, 3 side chain; linkers in the order of their positions; H or OH if unused. Non-standard residues stand in square brackets, D forms with d. Residues, ends and D or L forms follow the SMILES beside them. N(1S-Me-propyl)Gly = CC[C@H](C)NCC(=O)O; Dopa = N[C@@H](Cc1ccc(O)c(O)c1)C(=O)O; X1 = O=C(CN(CC(F)(F)F)[*:1])[*:2]; Nspe = C[C@H](NCC(=O)O)c1ccccc1; Nlys = NCCCCNCC(=O)O; Nme = COCCNCC(=O)O

What was measured:
E. coli [1] = format: cell-based, Escherichia coli (ATCC 35218)
Description: (§1) The polymers were initially tested to determine their antibacterial properties in the solution state. Antibacterial activities of the compounds were tested using the methods described above for both Gram-negative and Gram-positive bacterial strains.
(§2) The minimum inhibitory concentration (MIC) for each polymer was determined according to Clinical Laboratory Standards Institute (CLSI) broth microdilution protocols (M7-A6). The procedure explained previously was followed (Chongsiriwatana et al., supra); briefly, serial dilutions of the polymers were prepared in Mueller-Hinton broth (MHB) in 96-well microtiter plates and bacterial inoculum in MHB was added to each well (˜5.0×10^4 CFU/well). Optical density was monitored at 590 nm for 16 h at 35° C.

B. subtilis = format: cell-based, Bacillus subtilis (ATCC 6633); details: 16 h
Description: as §1, §2

S. epidermidis = format: cell-based, Staphylococcus epidermidis RP62A (ATCC 12228); details: 16 h
Description: as §1, §2

P. aeruginosa = format: cell-based, Pseudomonas aeruginosa (ATCC 700829); details: 16 h
Description: as §1, §2

E. coli [2] = assay: Antibacterial activity on surfaces: bacterial adhesion and membrane permeation (FITC) on modified TiO2 slides; format: cell-based, Escherichia coli; details: for E. coli attachment to modified TiO2: 2 h exposure, compared with bare TiO2; for Percent FITC-stained bacteria: compared among surfaces
Description: Bacterial experiments on modified TiO2 slides were performed by exposing the surfaces to an E. coli suspension for two hours and then centrifuging to remove unattached and weakly attached bacteria. The bacteria remaining on the surfaces were imaged in phase contrast for determination of cell numbers, and in fluorescence after staining with FITC to detect cells with compromised membranes. From these images, total number of adherent bacteria (from phase contrast) and percent of attached cells with compromised membranes (from FITC staining) were determined and are shown in Table 3.
E. coli were streaked from frozen stocks onto Mueller-Hinton agar and incubated overnight at 37° C. A few colonies were then used to inoculate 25 ml of sterile Mueller-Hinton broth (MHB) and grown overnight at 37° C. TiO2-coated glass slides were modified with the polymers using the previously described procedure. Two-well chambers were clamped to the slides and sealed by injecting silastic resin, which was allowed to cure overnight. Slides were sterilized by exposure to UV light for 10 minutes. The bacterial suspension was concentrated by centrifugation and resuspended in PBS at a concentration of 5×10^7 CFU/ml; 2 ml of the E. coli suspension was added to each slide chamber. Slide chambers were covered and placed in a humidified incubator at 37° C.; after 2 h, nonadherent bacteria were removed by inverted centrifugation for 2 min at 30 rcf in sealed bags filled with PBS (Jensen et al., 2004). […] Slides were rinsed with PBS and imaged by confocal microscopy equipped with an inverted microscope (Leica TCS SP2). Phase contrast and fluorescent (488-nm band-pass filter for excitation of FITC) images were taken at identical locations to determine bacterial cell count and percent stained with FITC. The microscopy images were quantified using thresholding in ImageJ, and averages with standard deviations for at least nine images from one slide are reported. While slides were prepared in duplicate or triplicate and consistency was qualitatively confirmed between experimental samples, the reported counts and images were obtained from a single slide for each condition.

[3] = test system: E. coli, B. subtilis, S. epidermidis and P. aeruginosa; assay: Antibacterial activity in solution (MIC), statements for all bacterial strains; format: cell-based; details: for Antibacterial activity in solution: tested concentrations
Description: as §1, §2

Compound: C[C@@H](c1ccccc1)N(CC(N)=O)C(=O)CN(C(=O)CN(CCCCN)C(=O)CN(C(=O)CN(C(=O)CN(CCCCN)C(=O)[C@@H]1CCCN1C(=O)CN(C(=O)CN(CCCCN)C(=O)CN(C(=O)CN(C(=O)CNCCCCN)[C@@H](C)c1ccccc1)[C@@H](C)c1ccccc1)[C@@H](C)c1ccccc1)[C@@H](C)c1ccccc1)[C@@H](C)c1ccccc1)[C@@H](C)c1ccccc1 [AMP, H-NLys-Nspe-Nspe-NLys-Nspe-Pro-[NLys-Nspe-Nspe]2—NH2] (H-[Nlys][Nspe][Nspe][Nlys][Nspe]P[Nlys][Nspe][Nspe][Nlys][Nspe][Nspe]-NH2)
- MIC E. coli (E. coli [1]; solution, MHB, 16 h at 35° C.): 12.5 µM (≈ 21.9 µg/mL)
- MIC B. subtilis (B. subtilis): 1.6 µM (≈ 2.81 µg/mL)
- MIC S. epidermidis (S. epidermidis): 1.6 µM (≈ 2.81 µg/mL)
- MIC P. aeruginosa (P. aeruginosa): 25 µM (≈ 43.9 µg/mL)

Compound: COCCN(CC(=O)N(CCOC)CC(=O)N(CCOC)CC(=O)N(CCOC)CC(=O)N(CCOC)CC(=O)N(CCOC)CC(=O)N(CCOC)CC(=O)N(CCOC)CC(=O)N(CCOC)CC(=O)N(CCOC)CC(=O)N(CC(=O)N[C@@H](Cc1ccc(O)c(O)c1)C(=O)N[C@@H](CCCCN)C(=O)N[C@@H](Cc1ccc(O)c(O)c1)C(=O)N[C@@H](CCCCN)C(=O)N[C@@H](Cc1ccc(O)c(O)c1)C(N)=O)CC(F)(F)F)C(=O)CN(CCOC)C(=O)CN(CCOC)C(=O)CN(CCOC)C(=O)CN(CCOC)C(=O)CN(CCOC)C(=O)CN(CCOC)C(=O)CN(CCOC)C(=O)CN(CCOC)C(=O)CN(CCOC)C(=O)CN(CCOC)C(=O)CN(C(=O)CN(C(=O)CN(CCCCN)C(=O)CN(C(=O)CN(C(=O)CN(CCCCN)C(=O)[C@@H]1CCCN1C(=O)CN(C(=O)CN(CCCCN)C(=O)CN(C(=O)CN(C(=O)CNCCCCN)[C@@H](C)c1ccccc1)[C@@H](C)c1ccccc1)[C@@H](C)c1ccccc1)[C@@H](C)c1ccccc1)[C@@H](C)c1ccccc1)[C@@H](C)c1ccccc1)[C@@H](C)c1ccccc1 [PMP1-AMP] (H-[Nlys][Nspe][Nspe][Nlys][Nspe]P[Nlys][Nspe][Nspe][Nlys][Nspe][Nspe][Nme][Nme][Nme][Nme][Nme][Nme][Nme][Nme][Nme][Nme][Nme][Nme][Nme][Nme][Nme][Nme][Nme][Nme][Nme][Nme][X1][Dopa]K[Dopa]K[Dopa]-NH2)
- MIC E. coli (E. coli [1]; 16 h): 50 µM (≈ 250 µg/mL)
- MIC B. subtilis (B. subtilis): 3.1 µM (≈ 15.5 µg/mL)
- MIC S. epidermidis (S. epidermidis): 3.1 µM (≈ 15.5 µg/mL)
- MIC P. aeruginosa (P. aeruginosa): 200 µM (≈ 998 µg/mL)
- E. coli attachment to modified TiO2 (E. coli [2]): comparable to bare TiO2 surfaces
- Total number of FITC-stained bacteria relative to PMP110 surfaces (E. coli [2]; adhered E. coli, 2 h): more than ten times greater
- Percent FITC-stained bacteria (E. coli [2]; adhered E. coli): highest percentage of bacterial cells with compromised membranes
- MIC relative to AMP alone (times greater) [3]: 2-4 times
- Antibacterial activity in solution [3]: active against all bacterial strains

Compound: CC[C@H](C)N(CC(=O)N(CCCCN)CC(=O)N(CC(=O)N(CC(=O)N(CCCCN)CC(=O)N(CC(=O)N(CC(=O)N(CCCCN)CC(=O)N(CC(=O)N(CC(=O)N(CCOC)CC(=O)N(CCOC)CC(=O)N(CCOC)CC(=O)N(CCOC)CC(=O)N(CCOC)CC(=O)N(CCOC)CC(=O)N(CCOC)CC(=O)N(CCOC)CC(=O)N(CCOC)CC(=O)N(CCOC)CC(=O)N(CCOC)CC(=O)N(CCOC)CC(=O)N(CCOC)CC(=O)N(CCOC)CC(=O)N(CCOC)CC(=O)N(CCOC)CC(=O)N(CCOC)CC(=O)N(CCOC)CC(=O)N(CCOC)CC(=O)N(CCOC)CC(=O)N(CC(=O)N[C@@H](Cc1ccc(O)c(O)c1)C(=O)N[C@@H](CCCCN)C(=O)N[C@@H](Cc1ccc(O)c(O)c1)C(=O)N[C@@H](CCCCN)C(=O)N[C@@H](Cc1ccc(O)c(O)c1)C(N)=O)CC(F)(F)F)[C@@H](C)CC)[C@@H](C)CC)[C@@H](C)CC)[C@@H](C)CC)[C@@H](C)CC)[C@@H](C)CC)C(=O)CN(C(=O)CNCCCCN)[C@@H](C)CC [PMP1-C, reference compound] (H-[Nlys][N(1S-Me-propyl)Gly][N(1S-Me-propyl)Gly][Nlys][N(1S-Me-propyl)Gly][N(1S-Me-propyl)Gly][Nlys][N(1S-Me-propyl)Gly][N(1S-Me-propyl)Gly][Nlys][N(1S-Me-propyl)Gly][N(1S-Me-propyl)Gly][Nme][Nme][Nme][Nme][Nme][Nme][Nme][Nme][Nme][Nme][Nme][Nme][Nme][Nme][Nme][Nme][Nme][Nme][Nme][Nme][X1][Dopa]K[Dopa]K[Dopa]-NH2)
- MIC E. coli (E. coli [1]; 16 h): >100 µM
- MIC B. subtilis (B. subtilis): >100 µM
- MIC S. epidermidis (S. epidermidis): >100 µM
- MIC P. aeruginosa (P. aeruginosa): >100 µM
- E. coli attachment to modified TiO2 (E. coli [2]): much higher than PMP1-AMP and TiO2 surfaces
- Percent FITC-stained bacteria (E. coli [2]; adhered E. coli): low and comparable to the control TiO2 substrates
- Antibacterial activity in solution [3]: not active at the tested concentrations

Compound: CC[C@H](C)N(CC(N)=O)C(=O)CN(C(=O)CN(CCCCN)C(=O)CN(C(=O)CN(C(=O)CN(CCCCN)C(=O)CN(C(=O)CN(C(=O)CN(CCCCN)C(=O)CN(C(=O)CN(C(=O)CNCCCCN)[C@@H](C)CC)[C@@H](C)CC)[C@@H](C)CC)[C@@H](C)CC)[C@@H](C)CC)[C@@H](C)CC)[C@@H](C)CC [Peptoid C, H-[NLys-Nssb-Nssb]4-NH2, reference compound] (H-[Nlys][N(1S-Me-propyl)Gly][N(1S-Me-propyl)Gly][Nlys][N(1S-Me-propyl)Gly][N(1S-Me-propyl)Gly][Nlys][N(1S-Me-propyl)Gly][N(1S-Me-propyl)Gly][Nlys][N(1S-Me-propyl)Gly][N(1S-Me-propyl)Gly]-NH2)
- MIC E. coli (E. coli [1]; 16 h): >100 µM
- MIC B. subtilis (B. subtilis): >100 µM
- MIC S. epidermidis (S. epidermidis): >100 µM
- MIC P. aeruginosa (P. aeruginosa): >100 µM
- Antibacterial activity in solution [3]: not active at the tested concentrations
